Values of other authors, collected in patent US7834038B2, “Methods for preparing nonpeptidic oligomers from amino acids” (New York University, priority 2005, dated 2010).
Entries after “also recorded” stand apart in the source; their conditions may differ.

Target: HIV-1 protease (Human immunodeficiency virus type 1 group M subtype B, UniProt P04585)
Settings: known inhibitors, statement in words

SMILES: CC(C)[C@H](NC(=O)OCc1ccccc1)C(=O)N[C@@H](Cc1ccccc1)[C@@H](O)[C@H](Cc1ccccc1)NC(=O)[C@H](NC(=O)OCc1ccccc1)C(C)C [A-74704]
- inhibition of HIV-1 protease: very high affinities; also recorded: powerful inhibitor

SMILES: O=C(N[C@H]1c2ccccc2C[C@H]1O)[C@H](Cc1ccccc1)CC(O)C[C@@H](Cc1ccccc1)C(=O)N[C@H]1c2ccccc2C[C@H]1O [L-700,417]
- inhibition of HIV-1 protease: very high affinities
